The values that follow come from patent publication US9776972B2, “Pyrazole derivatives as arginine methyltransferase inhibitors and uses thereof” (priority 2013, dated 2017).

Structures are written as SMILES.

For experiment [1], the target named is human PRMT3 (Homo sapiens, UniProt O60678). The experiment can be described thus: PRMT3 Biochemical Assay (3H-SAM Flashplate, peptide substrate). As to conditions: single experiment or average of multiple experiments. The text has this:
S-adenosylmethionine (SAM), S-adenosylhomocysteine (SAH), bicine, Tween20, dimethylsulfoxide (DMSO), bovine skin gelatin (BSG), isopropyl-β-D-thiogalactopyranoside (IPTG), and Tris(2-carboxyethyl)phosphine hydrochloride solution (TCEP) were purchased from Sigma-Aldrich at the highest level of purity possible. ^3H-SAM was purchase from American Radiolabeled Chemicals with a specific activity of 80 Ci/mmol. 384-well streptavidin Flashplates were purchased from PerkinElmer.
Peptide containing the classic RMT substrate motif was synthesized with an N-terminal linker-affinity tag motif and a C-terminal amide cap by 21st Century Biochemicals. The peptide was purified by high-performance liquid chromatography (HPLC) to greater than 95% purity and confirmed by liquid chromatography mass spectrometry (LC-MS). The sequence was Biot-Ahx-[…]-amide (SEQ ID NO.:11).
Full-length human PRMT3 (NM_005788.3) isoform 1 transcript clone was amplified from an HEK 293 cDNA library and subcloned into pGEX-KG (GE Life Sciences). The resulting construct encodes an N-terminal GST tag and a thrombin cleavage sequence ([…] […] […] […]) (SEQ ID NO.: 12) fused directly to Cys 2 of PRMT3.
E. coli (BL21(DE3) Gold, Stratagene) made competent by the CaCl2 method were transformed with the PRMT3 construct and ampicillin selection. Protein over-expression was accomplished by growing the PRMT3 expressing E. coli clone and inducing expression with 0.3 mM IPTG at 16° C. The culture was grown for 12 hours, harvested by centrifugation, and stored at −80° C. for purification.
GST-tagged PRMT3 was eluted with 50 mM Tris, 2 mM glutathione, pH 7.1 and 50 mM Tris, 20 mM glutathione, pH 7.1. Pooled fractions were dialysed in 20 mM Tris, 50 mM NaCl, 5% glycerol, 1 mM EDTA, 1 mM DTT, pH7.5 (Buffer B) and applied to a Q Sepharose Fast Flow column. GST-tagged PRMT3 was eluted by 500 mM NaCl in buffer B. Pooled fractions were dialyzed in 25 mM phosphate buffer, 100 mM NaCl, 5% glycerol, 2 mM DTT, pH 6.8 (Buffer C) and loaded on to a ceramic hydroxyapatite column. GST-tagged PRMT3 eluted with 25-400 mM phosphate in buffer C. Protein was concentrated and buffer was exchanged to 20 mM Tris, 150 mM NaCl, 5% glycerol, 5 mM β-mercaptoethanol, pH7.8 by ultrafiltration. The purity of recovered protein was 70%.
General Procedure for PRMT3 Enzyme Assays on Peptide Substrates.
The assays were all performed in a buffer consisting of 20 mM Bicine (pH=7.6), 1 mM TCEP, 0.005% BSG, and 0.002% Tween 20, prepared on the day of use. Compounds in 100% DMSO (1 ul) were spotted into a polypropylene 384-well V-bottom plates (Greiner) using a Platemate Plus outfitted with a 384-channel head (Thermo Scientific). DMSO (1 ul) was added to Columns 11, 12, 23, 24, rows A-H for the maximum signal control and 1 ul of SAH, a known product and inhibitor of PRMT3, was added to columns 11, 12, 23, 24, rows I-P for the minimum signal control. A cocktail (40 ul) containing the PRMT3 enzyme was added by Multidrop Combi (Thermo-Fisher). The compounds were allowed to incubate with PRMT3 for 30 min at room temperature, then a cocktail (10 ul) containing SAM and peptide was added to initiate the reaction (final volume=51 ul). The final concentrations of the components were as follows: PRMT3 was 0.5 nM, ^3H-SAM was 100 nM, non-radiolabeled SAM was 1.8 uM, peptide was 330 nM, SAH in the minimum signal control wells was 1 mM, and the DMSO concentration was 2%. The assays were stopped by the addition of potassium chloride (10 ul) to a final concentration of 100 mM. 50 ul of the reaction in the 384-well polypropylene plate was then transferred to a 384-well Flashplate and the biotinylated peptides were allowed to bind to the streptavidin surface for at least 1 hour before being washed once with 0.1% Tween20 in a Biotek ELx405 plate washer. […]

Experiment [2] relates to mono-methyl arginine in RKO cells. Put plainly: RKO Methylation Assay, In Cell Western (ICW) for mono-methyl arginine and DNA content. Format: cell-based. As to conditions: Homo sapiens, RKO, 72 h, RKO cells, 72 hours, mono-methyl arginine, percent activation; single experiment or average of multiple experiments; read-out: EC30 (In Cell Western data, Numerical). From the text:
RKO adherent cells were purchased from ATCC (American Type Culture Collection), Manassas, Va., USA. DMEM/Glutamax medium, penicillin-streptomycin, heat inactivated fetal bovine serum, 0.05% trypsin and D-PBS were purchased from Life Technologies, Grand Island, N.Y., USA. Odyssey blocking buffer, 800CW goat anti-rabbit IgG (H+L) antibody, and Licor Odyssey infrared scanner were purchased from Licor Biosciences, Lincoln, Nebr., USA. Mono-methyl arginine antibody was purchased from Cell Signaling Technology, Danvers, Mass., USA. Methanol was purchased from VWR, Franklin, Mass., USA. 10% Tween 20 was purchased from KPL, Inc., Gaithersburg, Md., USA. DRAQ5 was purchased from Biostatus Limited, Leicestershire, UK.
RKO adherent cells were maintained in growth medium (DMEM/Glutamax medium supplemented with 10% v/v heat inactivated fetal bovine serum and 100 units/mL penicillin-streptomycin) and cultured at 37° C. under 5% CO2.
Cell Treatment, in Cell Western (ICW) for Detection of Mono-Methyl Arginine and DNA Content.
RKO cells were seeded in assay medium at a concentration of 20,000 cells per mL to a poly-D-lysine coated 384 well culture plate (BD Biosciences 356697) with 50 μL per well. Compound (100 nL) from a 96-well source plate was added directly to 384 well cell plate. Plates were incubated at 37° C., 5% CO2 for 72 hours. After three days of incubation, plates were brought to room temperature outside of the incubator for ten minutes and blotted on paper towels to remove cell media. 50 μL of ice cold 100% methanol was added directly to each well and incubated for 30 min at room temperature. After 30 min, plates were transferred to a Biotek EL406 plate washer and washed 2 times with 100 μL per well of wash buffer (1×PBS). Next 60 μL per well of Odyssey blocking buffer (Odyssey Buffer with 0.1% Tween 20 (v/v)) were added to each plate and incubated 1 hour at room temperature. Blocking buffer was removed and 20 μL per well of primary antibody was added (mono-methyl arginine diluted 1:200 in Odyssey buffer with 0.1% Tween 20 (v/v)) and plates were incubated overnight (16 hours) at 4° C. Plates were washed 5 times with 100 μL per well of wash buffer. Next 20 μL per well of secondary antibody was added (1:200 800CW goat anti-rabbit IgG (H+L) antibody, 1:1000 DRAQ5 (Biostatus limited) in Odyssey buffer with 0.1% Tween 20 (v/v)) and incubated for 1 hour at room temperature. The plates were washed 5 times with 100 μL per well wash buffer then 2 times with 100 μL per well of water. Plates were allowed to dry at room temperature then imaged on the Licor Odyssey machine which measures integrated intensity at 700 nm and 800 nm wavelengths. Both 700 and 800 channels were scanned.
First, the ratio for each well was determined by:
Each plate included fourteen control wells of DMSO only treatment (minimum activation) as well as fourteen control wells for maximum activation treated with 20 μM of a reference compound. The average of the ratio values for each control type was calculated and used to determine the percent activation for each test well in the plate. Reference compound was serially diluted three-fold in DMSO for a total of nine test concentrations, beginning at 20 μM. Percent activation was determined and EC30 curves were generated using triplicate wells per concentration of compound.

Chain of human PRMT3 (O60678 with tags, fused parts or gaps): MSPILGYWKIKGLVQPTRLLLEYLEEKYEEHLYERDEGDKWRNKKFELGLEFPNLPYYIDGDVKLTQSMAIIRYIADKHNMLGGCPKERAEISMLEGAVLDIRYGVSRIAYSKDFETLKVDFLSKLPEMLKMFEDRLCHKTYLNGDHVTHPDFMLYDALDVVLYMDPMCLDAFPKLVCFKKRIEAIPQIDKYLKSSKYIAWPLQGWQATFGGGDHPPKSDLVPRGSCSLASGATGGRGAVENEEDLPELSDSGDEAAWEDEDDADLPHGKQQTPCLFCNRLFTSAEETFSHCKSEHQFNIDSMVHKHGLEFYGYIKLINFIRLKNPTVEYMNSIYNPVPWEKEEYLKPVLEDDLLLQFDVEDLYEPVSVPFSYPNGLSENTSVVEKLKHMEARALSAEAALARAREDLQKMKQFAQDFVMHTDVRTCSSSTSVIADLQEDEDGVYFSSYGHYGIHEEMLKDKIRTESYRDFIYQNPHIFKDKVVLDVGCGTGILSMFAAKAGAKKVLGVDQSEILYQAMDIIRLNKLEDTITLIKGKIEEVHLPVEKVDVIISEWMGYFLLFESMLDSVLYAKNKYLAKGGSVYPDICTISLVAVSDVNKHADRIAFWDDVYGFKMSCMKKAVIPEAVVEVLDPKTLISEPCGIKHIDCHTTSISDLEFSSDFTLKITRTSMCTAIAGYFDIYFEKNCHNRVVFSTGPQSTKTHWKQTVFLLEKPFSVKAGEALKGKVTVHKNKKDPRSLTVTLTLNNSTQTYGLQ

In experiment [1], `CC(C)Cc1ccc(-c2n[nH]cc2CN(C)CCN)cc1` [Compound 165] yielded an IC50 of 1.73 µM. The EC30 in experiment [2] stood at 0.66 µM.

By IC50 is commonly meant the concentration that gives 50% inhibition. The low end stands for inhibition by little substance, the high end for a need for much substance. Broadly, the EC30 is the concentration at which the effect reaches the 30% level.
